Data published in patent publication US12729221B2, “Anti-inflammatory peptide and use thereof” (MITO QUEST CO., LTD., priority 2020, dated 2026).
Where no end group is shown, it is not given here.

Assays:
NF-κB = test: LPS-induced phosphorylation of NF-kB in IC21, Western blot; format: cell-based, mouse; conditions: LPS, Western blot, FIGS. 12B-D to 12B-F
From the text: Specifically, LPS was used to induce an immune activation response caused by bacterial infection, and the phosphorylation of nuclear factor kappa-light-chain-enhancer of activated B cells (NF-kB) was checked to identify the mechanism of the immune activation response. […] Thereafter, the cells were washed with a PBS solution and then lysed with a RIPA buffer, and the supernatant was separated. In order to measure the change in the phosphorylation amount of NF-κB protein with the separated supernatant, the Western blot was performed as in Example 2.

[1] = test system: mouse sepsis models induced by LPS; test: Mouse sepsis model induced by LPS, survival; format: in vivo, C57BL/6 wild-type mice
Method: Specifically, 2 mg/kg and 5 mg/kg LPS were administered into the abdominal cavity of 7-week-old C57BL/6 wild-type mice every 6 hours, and 1 hour later, 0.4 mg/kg, 2 mg/kg and 10 mg/kg novel peptides were additionally administered into the abdominal cavity of the mice. Then, the survival of the mice was checked for 4 days.

interferon-beta (IFN-b) = test: polyIC-induced IFN-b expression in MLE-12 cells, ELISA; format: cell-based, mouse; conditions: 5 mg/ml polyIC, 16 hours, 25 mM or 2 mM peptide, FIG. 9A
Method: Specifically, polyinosinic:polycytidylic acid (polyIC), which is a synthetic ribonucleic acid known to be associated with viral infection among the PAMPs and promotes the production of interferon and is analogous to an RNA virus gene, was used to induce a viral infection response. First, a serum-free cell culture medium containing 5 mg/ml polyIC and MQP-15, MQP-23, MQP-31, MQP-37, MQP-Y9 or MQP-T234 was treated with 1×10^5 cells of a mouse lung epithelial cell line (MLE-12) for 16 hours. Then, the supernatant was obtained and the expression level of interferon-beta (IFN-b) was checked by enzyme-linked immunosorbent assay (ELISA).
(§1) Specifically, LPS and ATP were used to induce an inflammasome response caused by bacterial infection, and polyIC was used to induce an inflammatory response caused by viral infection. First, 1 mg/ml LPS and 5 mM or 1 mM novel alanine-substituted peptide were mixed in a serum-free cell culture medium, followed by treatment with 1×10^5 cells of IC21. Thereafter, 5 mM ATP and 5 mM or 1 mM novel alanine-substituted peptide were mixed in a serum-free cell culture medium and treated for 30 minutes. Then, the supernatant was obtained and the expression level of IL-1b was checked by ELISA. Also, 5 mg/ml polyIC and 25 mM or 2 mM novel alanine-substituted peptide were mixed in a serum-free cell culture medium, followed by treatment with 1×10^5 cells of MLE-12 for 16 hours. Thereafter, the supernatant was obtained and the expression level of IFN-b was checked by ELISA.
as §1, with “2” for “5 mM or 1”, “amino acid-substituted” for “alanine-substituted”, “and” for “and 25 mM or”
Specifically, polyIC was used to induce a viral infection response. First, a serum-free cell culture medium containing 5 mg/ml polyIC and MQP-37, MQP-37A6, MQP-37D6W, MQP-37D6Y, MQP-37D6H, MQP-37D6K, MQP-37D6R or MQP-37D6V was treated with 1×10^5 cells of MLE-12 for 16 hours. Then, the supernatant was obtained and the expression level of IFN-b was checked by ELISA.

recombinant MAVS protein = recombinant MAVS protein (Homo sapiens, UniProt Q7Z434); test: Binding of fluorescence-labeled peptides to plate-coated recombinant MAVS protein
Method: Specifically, recombinant MAVS protein and fluorescence-labeled peptides MQP-37 and MQP-37A6 were used to check the binding affinity to the MAVS protein. First, 250 ng of recombinant MAVS protein was coated on a 96-well plate for ELISA, followed by blocking with 1% BSA/PBS solution. Thereafter, fluorescence-labeled peptides of various concentrations were added thereto and reacted for 2 hours, and the amount of peptide bound to the MAVS protein was checked by fluorescence measurement.

IL-1b = test: LPS/ATP-induced IL-1b expression (inflammasome response) in IC21, ELISA; format: cell-based, mouse; conditions: 1 mg/ml LPS, 5 mM ATP 30 minutes
Method: as §1
as §1, with “2” for “5 mM or 1”, “amino acid-substituted” for “alanine-substituted”, “and” for “and 25 mM or”
Specifically, LPS was used to induce an inflammatory response caused by bacterial infection. First, MQP-37 or MQP-37A6 was added to a serum-free cell culture medium containing 0.1 mg/ml LPS, followed by treatment with 1×10^5 cells of IC21 for 6 hours. Then, the supernatant was obtained and the expression level of IL-6 was checked by ELISA. Also, the Western blot was performed and the phosphorylation of NF-κB was checked to identify the mechanism of immune activation response. Thereafter, LPS and ATP were used to induce an inflammasome response caused by bacterial infection, LPS and ATP were used. First, 1 mg/ml LPS and L- or D-MQP-37 and MQP-37A6 were mixed in a serum-free cell culture medium and treated with 1×10^5 cells of IC21. Then, 5 mM ATP and MQP-37 or MQP-37A6 were mixed in a serum-free cell culture medium and treated for 30 minutes. Thereafter, the supernatant was obtained and the expression level of IL-1b was checked by ELISA.

interleukin-6 (IL-6) = test: LPS-induced IL-6 expression in IC21, ELISA; format: cell-based, mouse; conditions: 0.1 mg/ml LPS, 6 hours, FIG. 12A-A
Method: Specifically, LPS was used to induce an inflammatory response caused by bacterial infection. First, MQP-15, MQP-23, MQP-31, MQP-37 or MQP-Y9 was added to a serum-free cell culture medium containing 0.1 mg/ml LPS, followed by treatment with 1×10^5 cells of IC21 for 6 hours. Then, the supernatant was obtained and the expression levels of interleukin-6 (IL-6) and a tumor necrosis factor-alpha (TNF-a) were checked by ELISA.

Sequence of recombinant MAVS protein (Q7Z434 whole entry, species assumed): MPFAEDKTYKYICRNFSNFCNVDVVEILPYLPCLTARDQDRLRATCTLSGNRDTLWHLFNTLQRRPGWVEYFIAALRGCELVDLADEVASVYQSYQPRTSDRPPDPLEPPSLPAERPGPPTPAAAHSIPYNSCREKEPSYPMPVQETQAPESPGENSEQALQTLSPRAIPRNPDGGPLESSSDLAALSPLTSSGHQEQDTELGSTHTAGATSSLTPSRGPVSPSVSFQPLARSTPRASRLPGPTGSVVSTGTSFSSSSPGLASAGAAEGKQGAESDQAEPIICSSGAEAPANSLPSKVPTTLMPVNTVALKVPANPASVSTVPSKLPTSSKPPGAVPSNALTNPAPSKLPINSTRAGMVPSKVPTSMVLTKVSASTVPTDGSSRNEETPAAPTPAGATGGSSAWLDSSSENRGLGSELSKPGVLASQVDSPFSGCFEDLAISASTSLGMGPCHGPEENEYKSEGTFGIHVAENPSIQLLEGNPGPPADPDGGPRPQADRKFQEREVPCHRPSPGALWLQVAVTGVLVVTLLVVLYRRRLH

Sequence: SLVLAAARW [MQP-37A6]
- immune activation response (NF-κB phosphorylation), compared with MQP-37 (NF-κB): more than the original peptide MQP-37
- treating sepsis [1]: effective
- inflammatory response caused by viral infection (IFN-b), compared to original MQP-37 (interferon-beta (IFN-b)): significantly improved
- Kd (recombinant MAVS protein): ~750 µM
- inflammasome response caused by bacterial infection (IL-1b), sixth amino acid of MQP-37 substituted (IL-1b; 2 mM peptide, FIG. 10A-B): most effectively
- inflammasome response caused by bacterial infection (IL-1b), compared to original MQP-37 (IL-1b; 5 mM or 1 mM peptide, FIG. 9A): significantly improved
- inflammasome response caused by bacterial infection (IL-1b), compared with MQP-37 (IL-1b; FIGS. 12A-B and 12A-C): more than the original peptide MQP-37
- inflammatory response caused by bacterial infection (IL-6), compared with MQP-37 (interleukin-6 (IL-6)): more than the original peptide MQP-37
